According to ChEMBL document CHEMBL5223177, “Pyrazole Ureas as Low Dose, CNS Penetrant Glucosylceramide Synthase Inhibitors for the Treatment of Parkinson's Disease” (ACS Med Chem Lett, 2023):
One block for each compound: values may come before it.

Key:
[1] = Intrinsic clearance in rat at 5 to 10 mg/kg, po or 0.05 to 2 mg/kg, iv; assay type: ADME, organism-based; conditions: in vivo, dose 5-10 mg/kg
[2] = target: T1, mouse BCRP (ABCG2) (Mus musculus, UniProt Q7TMS5); test: Substrate activity at mouse BCRP assessed as efflux ratio at 1 uM; assay type: ADME; conditions: not told
T1 sequence (Q7TMS5 whole entry): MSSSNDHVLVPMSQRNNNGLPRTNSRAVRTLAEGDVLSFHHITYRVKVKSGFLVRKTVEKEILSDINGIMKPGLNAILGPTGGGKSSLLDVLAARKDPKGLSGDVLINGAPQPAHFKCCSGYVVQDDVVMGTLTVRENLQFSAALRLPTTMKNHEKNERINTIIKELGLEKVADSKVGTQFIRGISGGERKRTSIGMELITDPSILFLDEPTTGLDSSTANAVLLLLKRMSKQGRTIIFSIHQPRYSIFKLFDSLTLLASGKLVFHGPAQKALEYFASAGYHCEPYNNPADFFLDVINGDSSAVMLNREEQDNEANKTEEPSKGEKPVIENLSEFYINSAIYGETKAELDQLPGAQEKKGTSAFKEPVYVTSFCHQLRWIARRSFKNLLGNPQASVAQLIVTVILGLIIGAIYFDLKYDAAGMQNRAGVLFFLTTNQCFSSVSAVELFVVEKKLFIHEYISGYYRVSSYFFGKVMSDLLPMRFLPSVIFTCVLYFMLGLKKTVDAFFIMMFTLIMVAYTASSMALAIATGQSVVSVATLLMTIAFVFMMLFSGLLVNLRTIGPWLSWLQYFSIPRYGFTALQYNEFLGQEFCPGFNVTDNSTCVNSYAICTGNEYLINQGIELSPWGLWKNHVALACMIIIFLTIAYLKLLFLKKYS

[3] = organism: Homo sapiens; test: Selectivity ratio of IC50 for human 5HT3A to IC50 for GCS (unknown origin)
[4] = system: rat P-gp; test: Substrate activity at rat P-gp assessed as efflux ratio at 1 uM; assay type: ADME; conditions: not told
[5] = Mean residence time in rat at 5 to 10 mg/kg, po or 0.05 to 2 mg/kg, iv; assay type: ADME, organism-based; conditions: in vivo, dose 5-10 mg/kg
[6] = target: T1, mouse BCRP (ABCG2); test: Substrate activity at mouse BCRP assessed as apparent permeability at 1 uM; assay type: ADME; conditions: not told
[7] = target: T2, Ceramide glucosyltransferase (Homo sapiens, UniProt Q16739); test: Inhibition of GCS in human fibroblast; assay type: cell-based
T2 sequence (Q16739 whole entry): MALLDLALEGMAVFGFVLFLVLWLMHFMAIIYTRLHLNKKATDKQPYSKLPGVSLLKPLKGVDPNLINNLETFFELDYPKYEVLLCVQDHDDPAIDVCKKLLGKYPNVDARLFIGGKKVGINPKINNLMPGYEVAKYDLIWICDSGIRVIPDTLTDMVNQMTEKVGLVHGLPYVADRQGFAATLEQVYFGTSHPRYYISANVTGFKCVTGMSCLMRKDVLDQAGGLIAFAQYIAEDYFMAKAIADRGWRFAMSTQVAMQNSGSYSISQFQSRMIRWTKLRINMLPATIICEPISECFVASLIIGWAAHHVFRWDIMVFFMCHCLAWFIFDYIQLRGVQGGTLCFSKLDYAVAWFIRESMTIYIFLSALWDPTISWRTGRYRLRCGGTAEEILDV

[8] = target: T3, 5-hydroxytryptamine receptor 3A (Homo sapiens, UniProt P46098); test: Antagonist activity at human 5HT3A expressed in HEK293 cells incubated for 1 hr by FLIPR assay; assay type: cell-based
T3 sequence (P46098 whole entry): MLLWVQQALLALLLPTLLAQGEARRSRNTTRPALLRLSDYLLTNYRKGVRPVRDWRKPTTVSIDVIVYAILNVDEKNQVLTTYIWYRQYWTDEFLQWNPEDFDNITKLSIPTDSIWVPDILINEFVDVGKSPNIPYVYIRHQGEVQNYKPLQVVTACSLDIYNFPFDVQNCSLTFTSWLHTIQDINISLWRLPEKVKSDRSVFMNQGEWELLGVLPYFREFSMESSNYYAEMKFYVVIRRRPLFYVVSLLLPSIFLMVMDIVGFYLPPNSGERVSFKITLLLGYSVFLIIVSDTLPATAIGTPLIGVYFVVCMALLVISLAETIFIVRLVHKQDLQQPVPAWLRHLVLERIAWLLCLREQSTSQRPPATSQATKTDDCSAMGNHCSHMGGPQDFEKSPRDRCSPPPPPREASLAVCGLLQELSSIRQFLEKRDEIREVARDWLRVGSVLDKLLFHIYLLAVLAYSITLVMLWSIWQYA

[9] = Bioavailability in rat at 5 to 10 mg/kg, po or 0.05 to 2 mg/kg, iv; assay type: ADME, organism-based; conditions: in vivo, dose 5-10 mg/kg
[10] = system: rat P-gp; test: Substrate activity at rat P-gp assessed as apparent permeability at 1 uM; assay type: ADME; conditions: not told
[11] = target: T2, Ceramide glucosyltransferase; test: Inhibition of Glucosylceramide synthase (unknown origin) using C6-ceramide and UDP-glucose as substrate preincubated for 30 mins followed by substrate addition and measured after 2 hrs by UDP-Glo luminometer analysis
[12] = Lipophilicity, logD of compound by HPLC method; assay type: physicochemical

Structure (SMILES): CC1(C)Cc2c(c(-c3ccc(F)cc3)nn2C(=O)N2CCN3CCC2CC3)CO1
CL [1]: 180 mL/min/kg
efflux ratio at 1 µM [2]: 0.9
Ratio IC50 [3]: 470
efflux ratio at 1 µM [4]: 8.5
MRT [5]: 2.6 h
Papp at 1 µM [6]: 31 ×10⁻⁶ cm/s
IC50 [7]: 32 nM
IC50 [8]: 4210 nM

Structure (SMILES): O=C(N1CCN2CCC1CC2)n1nc(-n2cc(C(F)(F)F)cn2)c2c1[C@H]1C[C@H]1C2
CL [1]: 85 mL/min/kg
efflux ratio at 1 µM [2]: 0.8
Ratio IC50 [3]: 25000
efflux ratio at 1 µM [4]: 2.2
MRT [5]: 8.2 h
Papp at 1 µM [6]: 23 ×10⁻⁶ cm/s
IC50 [7]: 33 nM
bioavailability [9]: 67%
IC50 [8]: 2470 nM

Structure (SMILES): O=C(N1CCN2CCC1CC2)n1nc(-c2ccc(F)c(Cl)c2)c2c1COCC2
efflux ratio at 1 µM [4]: 1.7
Papp at 1 µM [10]: 24 ×10⁻⁶ cm/s
IC50 [11]: 1 nM
logD [12]: 2.8

Structure (SMILES): COc1ccc(-c2nn(C(=O)N3CCN4CCC3CC4)c3c2CCOC3)cc1
CL [1]: 3510 mL/min/kg
efflux ratio at 1 µM [2]: 1.4
Ratio IC50 [3]: 164
efflux ratio at 1 µM [4]: 4.4
MRT [5]: 0.7 h
Papp at 1 µM [6]: 32 ×10⁻⁶ cm/s
IC50 [7]: 35 nM
IC50 [8]: 338 nM

Structure (SMILES): COc1ccc(-n2nc(C(=O)N3CCN4CCC3CC4)c3c2CCOC3)cc1
Papp at 1 µM [10]: 31 ×10⁻⁶ cm/s

IC50 [11]: 7400 nM
Structure (SMILES): CCN1CCCN(C(=O)c2nn(-c3ccc(OC)cc3)c3c2COCC3)CC1

IC50 [11]: 690 nM
Structure (SMILES): COc1ccc(-n2nc(C(=O)N3CCCNCC3)c3c2CCOC3)cc1

Structure (SMILES): O=C(N1CCN2CCC1CC2)n1nc(-n2cc(C(F)(F)F)cn2)c2c1CCC2
CL [1]: 89 mL/min/kg
efflux ratio at 1 µM [2]: 0.8
Ratio IC50 [3]: 5480
efflux ratio at 1 µM [4]: 1.7
MRT [5]: 5.9 h
Papp at 1 µM [6]: 24 ×10⁻⁶ cm/s
IC50 [7]: 32 nM
bioavailability [9]: 25%
IC50 [8]: 2190 nM

Structure (SMILES): O=C(N1CCN2CCC1CC2)n1nc(-n2cc(Cl)cn2)c2c1COCC2
CL [1]: 120 mL/min/kg
efflux ratio at 1 µM [2]: 1.4
Ratio IC50 [3]: 96
efflux ratio at 1 µM [4]: 4.4
MRT [5]: 1.1 h
Papp at 1 µM [6]: 32 ×10⁻⁶ cm/s
IC50 [7]: 37 nM
IC50 [8]: 585 nM

Structure (SMILES): O=C(c1nn(-c2ccc(F)c(Cl)c2)c2c1COCC2)N1CCN2CCC1CC2
efflux ratio at 1 µM [4]: 19
Papp at 1 µM [10]: 32 ×10⁻⁶ cm/s
IC50 [11]: 6 nM
logD [12]: 1.9

Structure (SMILES): O=C(N1CCN2CCC1CC2)n1nc(-c2ccc(C(F)(F)F)cc2)c2c1COCC2
CL [1]: 610 mL/min/kg
efflux ratio at 1 µM [2]: 1.2
Ratio IC50 [3]: 647
efflux ratio at 1 µM [4]: 3.2
MRT [5]: 3.3 h
Papp at 1 µM [6]: 33 ×10⁻⁶ cm/s
IC50 [7]: 21 nM
IC50 [8]: 1590 nM

IC50 [11]: 12500 nM
Structure (SMILES): COc1ccc(-n2nc(C(=O)N3CCN(C)CC(F)C3)c3c2CCOC3)cc1 (racemic)

IC50 [11]: > 28000 nM
Structure (SMILES): COc1ccc(-n2nc(C(=O)N3CC(c4cnc(C)n4C)C3)c3c2CCOC3)cc1

efflux ratio at 1 µM [4]: 5
IC50 [7]: 180 nM
IC50 [11]: 1000 nM
Structure (SMILES): COc1ccc(-n2nc(C(=O)N3CCCN(C)CC3)c3c2CCOC3)cc1

Structure (SMILES): O=C(N1CCN2CCC1CC2)n1nc(-n2cc(C(F)(F)F)cn2)c2c1CCOC2
CL [1]: 39 mL/min/kg
efflux ratio at 1 µM [2]: 1.2
Ratio IC50 [3]: 2070
efflux ratio at 1 µM [4]: 2.7
MRT [5]: 3.2 h
Papp at 1 µM [6]: 42 ×10⁻⁶ cm/s
IC50 [7]: 32 nM
IC50 [8]: 7470 nM

Papp at 1 µM [10]: 6 ×10⁻⁶ cm/s
Structure (SMILES): COc1ccc(-n2nc(C(=O)N3CCNCC(CO)C3)c3c2CCOC3)cc1 (racemic)
